Molecules are shown by their SMILES.

The source of these data is article PMC5615050 (Scientific Reports, 2017).

The experiment addresses Bac-NA^H274Y H1N1 (Influenza A virus, UniProt P03470, H259Y). Put plainly: biochemical.

Broadly, the IC50 is the point on the concentration scale where inhibition reaches its midpoint. Higher therefore signals weaker potency in that assay. `CC1OC(OC2CC(O)C3(CO)C4C(O)CC5(C)C(C6COC(O)C6)CCC5(O)C4CCC3(O)C2)C(O)C(O)C1O` (stereo not drawn) [BPR1P0003S0] returned an IC50 above 40 µM.

`CC12CCC(O)CC1CCC1C2CC(O)C2(C)C(C3=CC(=O)OC3)CCC12O` (stereo not drawn) [BPR1P0007S0] yielded an IC50 above 40 µM.

Turning to `CC12CCC(O)CC1CCC1C2CCC2(C)C(C3=CC(=O)OC3)CCC12O` (stereo not drawn) [BPR1P0008S0], the IC50 was above 40 µM.
